# Laboratory results reported in patent US5527801A, “Ameliorant for blood lipid metabolism” (Dainippon Pharmaceutical Co., Ltd., priority 1991, dated 1996).
# Like-named read-outs stand apart in the source and are kept apart here.
# Assays:
# [1] = test system: lipid deposition at aortic inner wall; experiment: Area of lipid deposition at aortic inner wall of rabbits fed high fat feed (atherosclerosis); format: in vivo, male white Japanese rabbits; details: 9 weeks; for Area of lipid deposition at aortic inner wall: high fat feed, percentage of whole area of aortic inner wall, oral once a day: maleate of Compound A 30, diltiazem 50, prazosin 3 mg/kg/day; for Area of lipid deposition at the aortic inner wall, effect in words: vs High fat feed + Vehicle
# Description: (§1) In this experiment, male white Japanese rabbits (5 to 7 rabbits/group) were used. The high fat feed was prepared by adding 1% cholesterol and 6% coconut oil to the solid feed (Oriental Yeast Co., Ltd., RC-4).
# (§2) Separately, in the normal feed group, each rabbit was given normal solid feed (RC-4) (100 g/day) and a vehicle (tragacanth solution) orally.
# (§3) Nine weeks after the beginning of administration, each rabbit was killed with bleeding under pentobarbital-anesthesia, and the aorta was taken out. The cholesterol amount in the aorta was determined, and the lipid deposition at the aortic inner wall was stained and the area of the stained parts was measured.
# atherosclerosis = details: cited from earlier work
# phospholipid in plasma = experiment: Phospholipid in plasma of rabbits fed high fat feed; format: in vivo, male white Japanese rabbits; details: for Phospholipid concentration, effect in words: vs High fat feed + Vehicle, up to 9 weeks; for Phospholipid concentration in plasma: ± standard error
# Description: as §1, §2
# [2] = test system: cholesterol amount in aortas; experiment: Cholesterol amount in the aorta of rabbits fed high fat feed (atherosclerosis); format: in vivo, male white Japanese rabbits; details: 9 weeks; for Cholesterol amount in aortas: high fat feed, oral once a day: maleate of Compound A 30, diltiazem 50, prazosin 3 mg/kg/day; for Cholesterol amount in the aorta, effect in words: vs High fat feed + Vehicle
# Description: as §1, §2, §3
# [3] = Hypotensive activity at the dosages of the experiment; format: in vivo; details: at 30 (maleate of Compound A), 50 (diltiazem), 3 (prazosin) mg/kg/day, oral
# [4] = test system: total cholesterol in plasma; experiment: Total cholesterol in plasma of rabbits fed high fat feed; format: in vivo, male white Japanese rabbits; details: for Total cholesterol concentration, effect in words: vs High fat feed + Vehicle, up to 9 weeks; for Total cholesterol concentration in plasma: ± standard error
# Description: as §1, §2
# [5] = test system: free cholesterol in plasma; experiment: Free cholesterol in plasma of rabbits fed high fat feed; format: in vivo, male white Japanese rabbits; details: for Free cholesterol concentration, effect in words: vs High fat feed + Vehicle, up to 9 weeks; for Free cholesterol concentration in plasma: ± standard error
# Description: as §1, §2
# [6] = Acute toxicity (LD50), oral, mice; details: mouse, in vivo
# rats = details: rat, in vivo
# beagles = details: dog, in vivo
# α1-receptor = details: Jpn. J. Pharmacol., 52 (suppl. 1), 212 (1990); cited from earlier work
# blood lipid = details: cited from earlier work
# [7] = JP Kokoku 58341/1991 (U.S. Pat. No. 4,749,703); cited from earlier work
# [8] = week 0, high fat feed, before treatment
# [9] = week 6, high fat feed, oral once a day: maleate of Compound A 30, diltiazem 50, prazosin 3 mg/kg/day
# [10] = week 8, high fat feed, oral once a day: maleate of Compound A 30, diltiazem 50, prazosin 3 mg/kg/day
# [11] = week 9, high fat feed, oral once a day: maleate of Compound A 30, diltiazem 50, prazosin 3 mg/kg/day
Structure (SMILES),Area of lipid deposition at aortic inner wall [1] [%],"Area of lipid deposition at the aortic inner wall, effect in words [1]","Phospholipid concentration, effect in words (phospholipid in plasma)",Phospholipid concentration in plasma (phospholipid in plasma; [8]) [mg/dL],Phospholipid concentration in plasma (phospholipid in plasma; [9]) [mg/dL],Phospholipid concentration in plasma (phospholipid in plasma; [10]) [mg/dL],Phospholipid concentration in plasma (phospholipid in plasma; [11]) [mg/dL],Cholesterol amount in aortas [2],"Cholesterol amount in the aorta, effect in words [2]",hypotensive activity [3],"Total cholesterol concentration, effect in words [4]","Total cholesterol concentration in plasma [4, 8] [mg/dL]","Total cholesterol concentration in plasma [4, 9] [mg/dL]","Total cholesterol concentration in plasma [4, 10] [mg/dL]","Total cholesterol concentration in plasma [4, 11] [mg/dL]","Free cholesterol concentration, effect in words [5]","Free cholesterol concentration in plasma [5, 8] [mg/dL]","Free cholesterol concentration in plasma [5, 9] [mg/dL]","Free cholesterol concentration in plasma [5, 10] [mg/dL]","Free cholesterol concentration in plasma [5, 11] [mg/dL]",also measured
COc1ccc([C@@H]2Sc3ccccc3N(CCN(C)C)C(=O)[C@@H]2OC(C)=O)cc1 [diltiazem],45.2,not decreased at all,no decrease,454 ± 72,931 ± 50,825 ± 116,718,509.3 ± 240.1 mg/kg of protein,not decreased at all,show hypotensive activity,no decrease,1127 ± 202,2297 ± 127,2106 ± 293,1626,no decrease,318 ± 57,660 ± 42,673 ± 96,486,"atherosclerosis inhibitory activity (atherosclerosis; Atherosclerosis, 51, 343-344 (1984)): no inhibitory activity; atherosclerosis inhibitory activity (atherosclerosis; rabbits, Lab. Invest. 49, 154-158 (1983)): shows the atherosclerosis inhibitory activity"
O=C(CCCN1CCN(c2ccc(F)cc2)CC1)NC1c2ccccc2CSc2ccccc21 (stereo not shown) [maleate of Compound A],–,also decreased,significantly decreased from 6 weeks after the beginning of the administration,–,–,–,–,–,significantly decreased,show hypotensive activity,significantly decreased from 8 weeks after the beginning of administration,–,–,–,–,significantly decreased from 6 weeks after the beginning of the administration,–,–,–,–,LD50 [6]: > 500 mg/kg; toxicity by prolonged administration (rats): no significant toxicity was observed; toxicity by prolonged administration (beagles): no significant toxicity was observed
COc1cc2nc(N3CCN(C(=O)c4ccco4)CC3)nc(N)c2cc1OC [prazosin],56.7,not decreased at all,no decrease,474 ± 22,1240 ± 94,937 ± 112,803,372.8 ± 63.9 mg/kg of protein,not decreased at all,show hypotensive activity,no decrease,1201 ± 45,3048 ± 236,2082 ± 194,1999,no decrease,368 ± 22,916 ± 69,740 ± 96,584,"α1-receptor blocking activity (α1-receptor): having α1 -receptor blocking activity; blood lipid decreasing activity (blood lipid; Prog. Medicine 3, 1517-1525 (1983)): no blood lipid decreasing activity; blood lipid decreasing activity (blood lipid; human being, Am. J. Medicine, 76 (suppl. 2A), 79-84 (1984)): shows blood lipid decreasing activity"
O=C(CCCN1CCN(c2ccc(F)cc2)CC1)NC1c2ccccc2CSc2ccccc21 (stereo not shown) [Compound A],35.2,–,–,452 ± 42,678 ± 70,529 ± 66,489,234.4 ± 39.4 mg/kg of protein,–,–,–,1161 ± 110,1595 ± 136,1074 ± 162,1070,–,346 ± 34,503 ± 43,330 ± 56,306,calcium antagonistic activity [7]: potent calcium antagonistic activity; α1-receptor blocking activity (α1-receptor): have α1 -receptor blocking activity
